Source: publication PMC6328587 (Nature Communications, 2019)

Target: T1, FLAG-p38δ (Homo sapiens, UniProt O15264)
T1 construct: expressed in transfected cells; host or cells: HeLa
T1 sequence (O15264 1-365): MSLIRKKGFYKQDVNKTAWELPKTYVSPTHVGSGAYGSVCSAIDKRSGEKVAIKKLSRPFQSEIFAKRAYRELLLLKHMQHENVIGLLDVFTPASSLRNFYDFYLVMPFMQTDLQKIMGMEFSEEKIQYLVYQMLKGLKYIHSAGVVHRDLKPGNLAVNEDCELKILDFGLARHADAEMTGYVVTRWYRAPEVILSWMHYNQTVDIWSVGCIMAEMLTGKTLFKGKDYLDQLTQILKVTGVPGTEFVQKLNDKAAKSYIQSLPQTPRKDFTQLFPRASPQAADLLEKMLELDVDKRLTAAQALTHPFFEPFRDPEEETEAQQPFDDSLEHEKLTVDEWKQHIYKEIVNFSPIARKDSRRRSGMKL
Test: TUBE1 immunoprecipitation of poly-Ub p38δ in HeLa cells
Assay type: cell-based
Conditions: 1 µM PROTAC, 3 hours
Description: TUBE1 immunoprecipitation experiments were carried out exactly as described above, except for the fact that 1 mg of normalized HeLa lysate was loaded onto 20 µL TUBE1 agarose (LifeSensors) resin per sample.
WCL IP : TU B E 1 DMS SJF SJF
Supplementary Figure 7. SJFδ in d u ces p o lyu b iq u itin atio n o f p 38δ(related to F ig u re 4).
HeLa cells were co-transfected with HA-Ub and FLAG p38δ and treated with vehicle (DM SO ), 1 µM SJFα, or 1 µM SJFδ for 3 hours. Lysates were im m unoprecipitated with tandem ubiquitin binding entity (TUBE1) agarose beads and assessed by western blots detecting FLAG (p38δ).
TUBE1 binds tetra ubiquitin chains with high affinity, thereby enriching for polyubiquitinated proteins. In this assay, HA (Ub) serves as an im m unoprecipitation control for poly-Ub TUBE1 […]

TUBE1-reactivity (poly-Ub p38δ): increased TUBE1-reactivity
Compound: COc1cc2c(Oc3ccc(NC(=O)C4(C(=O)Nc5ccc(F)cc5)CC4)cc3F)ccnc2cc1OCCOCCOCCOc1cc(-c2scnc2C)ccc1CNC(=O)[C@@H]1C[C@@H](O)CN1C(=O)[C@H](C(C)C)N1Cc2ccccc2C1=O [SJFδ]
